Legend:
[1] = target: T1, Acyl-CoA:cholesterol acyltransferase (Oryctolagus cuniculus, UniProt Q95214); test: In vitro inhibitory activity against acyl coenzyme A:cholesterol acyltransferase in liver microsomes isolated from cholesterol-fed rabbits; set-up: species or system Microsome
T1 sequence (Q95214 whole entry): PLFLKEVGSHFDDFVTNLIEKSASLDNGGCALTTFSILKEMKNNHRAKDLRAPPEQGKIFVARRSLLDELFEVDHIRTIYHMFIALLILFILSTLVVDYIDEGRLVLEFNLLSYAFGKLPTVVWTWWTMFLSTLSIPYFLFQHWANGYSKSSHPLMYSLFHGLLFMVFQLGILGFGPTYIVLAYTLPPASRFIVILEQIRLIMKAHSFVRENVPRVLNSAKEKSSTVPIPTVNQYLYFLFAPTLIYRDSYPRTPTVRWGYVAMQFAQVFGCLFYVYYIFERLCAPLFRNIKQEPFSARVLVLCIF

[2] = system: Rattus norvegicus; test: Effect on liver cholesterol levels in male Dawley rats at a dose of 1 mg/kg/day, po (p<=0.01); format: functional
[3] = system: Rattus norvegicus; test: Effect on liver cholesterol levels in male Dawley rats at a dose of 3 mg/kg/day, po (p<=0.01); format: functional
[4] = system: Rattus norvegicus; test: Effect on serum cholesterol levels in male Dawley rats at a dose of 3 mg/kg/day, po (p<=0.01); format: functional
[5] = system: Mesocricetus auratus; test: In vivo hypocholesterolemic activity in golden hamsters, fed with a diet containing 2% cholesterol at a dose of 30 mg/kg, po
[6] = system: Cricetinae gen. sp.; test: In vivo hypocholesterolemic activity in golden hamsters, fed with a diet containing 2% cholesterol at a dose of 100 mg/kg; format: functional, Mesocricetus auratus
[7] = system: Cricetinae gen. sp.; test: (§1) In vivo hypocholesterolemic activity in golden hamsters, fed with a diet containing 2% cholesterol at a dose of 10 mg/kg, po; format: functional
[8] = system: Rattus norvegicus; test: Effect on serum cholesterol levels in male Dawley rats at a dose of 10 mg/kg/day, po (p<=0.01); format: functional
[9] = system: Rattus norvegicus; test: Effect on serum cholesterol levels in male Dawley rats at a dose of 1 mg/kg/day, po (p<=0.05); format: functional
[10] = system: Rattus norvegicus; test: Effect on liver cholesterol levels in male Dawley rats at a dose of 30 mg/kg/day, po (p<=0.01); format: functional
[11] = system: Rattus norvegicus; test: Effect on serum cholesterol levels in male Dawley rats at a dose of 30 mg/kg/day, po (p<=0.01); format: functional
[12] = system: Rattus norvegicus; test: Effect on liver cholesterol levels in male Dawley rats at a dose of 10 mg/kg/day, po (p<=0.01); format: functional
[13] = target: T2, Acyl-CoA:cholesterol acyltransferase (Oryctolagus cuniculus) (UniProt Q95214); test: In vitro inhibitory activity against Acyl coenzyme A:cholesterol acyltransferase in liver microsomes isolated from cholesterol-fed rabbits at 1 uM; conditions: Microsome
T2 sequence (whole entry): T1 sequence (Q95214 whole entry)

[14] = system: Cricetinae gen. sp.; test: (§2) In vivo hypocholesterolemic activity in golden hamsters, fed with a diet containing 2% cholesterol at a dose of 30 mg/kg, po; format: functional, Mesocricetus auratus
[15] = system: Cricetinae gen. sp.; test: as §1; format: functional, Mesocricetus auratus
[16] = system: Cricetinae gen. sp.; test: as §2; format: functional, Cricetulus griseus
[17] = target: T2, Acyl-CoA:cholesterol acyltransferase (Oryctolagus cuniculus); test: In vitro inhibitory activity against Acyl coenzyme A:cholesterol acyltransferase in liver microsomes isolated from cholesterol-fed rabbits; conditions: Microsome, concentration not given here

Compound	IC50 [1] [nM]	Reduction [6] [%]	other results
CC(C)c1cccc(C(C)C)c1NC(=O)C1c2ccccc2COc2ccc(Br)cc21 (configuration not stated)	23	143	Cholesterol level [2]: 19.2 mg/g; Cholesterol level [3]: 15 mg/g; Cholesterol level [4]: 167 mg/dL; Reduction [5]: 114%; Reduction [7]: 101%; Cholesterol level [8]: 114 mg/dL; Cholesterol level [9]: 214 mg/dL; Cholesterol level [10]: 6.3 mg/g; Cholesterol level [11]: 108 mg/dL; Cholesterol level [12]: 10.4 mg/g
Cc1ccc2c(c1)C(/C(S)=N/c1c(C(C)C)cccc1C(C)C)c1ccccc1CO2 (configuration not stated)			inhibition [13]: 15%
Cc1ccc2c(c1)C(C(=O)Nc1c(C(C)C)cccc1C(C)C)c1ccccc1CC2 (configuration not stated)	55		Reduction [14]: 93%; Reduction [15]: -1%
CC(C)c1cccc(C(C)C)c1NC(=O)C1c2cc(Br)ccc2COc2ccccc21 (configuration not stated)	190		Reduction [5]: 8%
O=C(Nc1c(Cl)cccc1Cl)C1c2ccccc2COc2cc(Br)ccc21 (configuration not stated)	940		
CCc1ccc2c(c1)C(C(=O)Nc1c(C(C)C)cccc1C(C)C)c1ccccc1CO2 (configuration not stated)	130	51	
O=C(Nc1ccc(F)cc1F)C1c2ccccc2COc2ccc(Br)cc21 (configuration not stated)	580		
CC(C)c1cccc(C(C)C)c1NC(=O)C1c2ccccc2COc2ccc(C#N)cc21 (configuration not stated)	490		eduction [16]: -6%
Cc1ccc2c(c1)C(C(=O)Nc1ccccc1)c1ccccc1CO2 (configuration not stated)		10	inhibition [17]: 15%
CC(C)c1cccc(C(C)C)c1NC(=O)C1c2ccccc2COc2ccc(F)cc21 (configuration not stated)	210	53	
COc1cc(OC)c(NC(=O)C2c3ccccc3COc3ccc(C)cc32)c(OC)c1 (configuration not stated)	580		
CC(C)c1cccc(C(C)C)c1/N=C(\S)C1c2ccccc2COc2ccc(Br)cc21 (configuration not stated)			inhibition [17]: 33%
Cc1cc(Br)c2c(c1)C(C(=O)Nc1c(C(C)C)cccc1C(C)C)c1ccccc1CO2 (configuration not stated)	100		Reduction [5]: 67%
CCCCCCCN(Cc1ccc(CC(C)(C)C)cc1)C(=O)Nc1ccc(F)cc1F [CL-277082]			Reduction [14]: 71%; Reduction [15]: 35%
Cc1cc(C)c(NC(=O)C2c3ccccc3COc3ccc(C)cc32)c(C)c1 (configuration not stated)	110		
Cc1ccc2c(c1)C(C(=O)Nc1c(Br)cccc1Br)c1ccccc1CO2 (configuration not stated)	190	6	
Cc1cccc(C)c1NC(=O)C1c2ccccc2COc2ccc(C(C)C)cc21 (configuration not stated)	360		
CC(C)c1cccc(C(C)C)c1NC(=O)C1c2ccccc2COc2ccc(C(=O)O)cc21 (configuration not stated)			inhibition [17]: 1%
CC(C)c1cccc(C(C)C)c1NC(=O)C1c2cc(Br)ccc2COc2ccc(Br)cc21 (configuration not stated)	58		Reduction [5]: 40%
CC(C)c1cccc(C(C)C)c1NC(=O)C1c2ccccc2CSc2ccc(Br)cc21 (configuration not stated)	150		Reduction [14]: 67%
COc1ccc2c(c1)C(C(=O)Nc1c(C(C)C)cccc1C(C)C)c1ccccc1CO2 (configuration not stated)	140		Reduction [5]: 22%
Cc1ccc2c(c1)C(C(=O)Nc1c(C)cccc1Cl)c1ccccc1CO2 (configuration not stated)	260		
Cc1ccc2c(c1)C(C(=O)Nc1ccccc1C(C)C)c1ccccc1CO2 (configuration not stated)	730	18	
COC(=O)c1ccc2c(c1)C(C(=O)Nc1c(C(C)C)cccc1C(C)C)c1ccccc1CO2 (configuration not stated)	180	89	
CC(C)c1cccc(C(C)C)c1NC(=O)C1c2ccccc2C(=O)N(C)c2ccc(Br)cc21 (configuration not stated)	240		
Cc1cc(C(=O)O)c2c(c1)C(C(=O)Nc1c(C(C)C)cccc1C(C)C)c1ccccc1CO2 (configuration not stated)			inhibition [17]: 28%
CC(C)c1cccc(C(C)C)c1NC(=O)C1c2ccccc2COc2ccccc21 (configuration not stated)	94	2	
Cc1ccc2c(c1)C(C(=O)Nc1c(C(C)C)cccc1C(C)C)c1cc(Br)ccc1CO2 (configuration not stated)	120		Reduction [5]: 17%
Cc1cccc(C)c1NC(=O)C1c2ccccc2COc2ccc(C(C)(C)C)cc21 (configuration not stated)	500	-42	

Second part, led by results:

IC50 [1] [nM]	Compound	Reduction [6] [%]	other results
190	Cc1ccc2c(c1)C(C(=O)Nc1c(Cl)cccc1Cl)c1ccccc1CO2 (configuration not stated)	25	
25	CC(C)c1cccc(C(C)C)c1NC(=O)C1c2ccccc2C=Cc2ccccc21		Reduction [14]: 73%
150	CC(C)c1cccc(C(C)C)c1NC(=O)C1c2ccccc2COc2ccc(Cl)cc21 (configuration not stated)	97	
640	CC(C)c1cccc(C(C)C)c1NC(=O)C1c2ccccc2OCc2ncccc21 (configuration not stated)		
40	CC(C)c1cccc(C(C)C)c1NC(=O)C1c2ccccc2CCc2ccccc21		Reduction [14]: 89%; Reduction [15]: 3%
7	CSc1ccc2c(c1)C(C(=O)Nc1c(C(C)C)cccc1C(C)C)c1ccccc1CO2 (configuration not stated)		Reduction [5]: 5%
400	CC(C)c1cccc(C(C)C)c1NC(=O)C1c2ccccc2COc2ccc(C(=O)N(C)C)cc21 (configuration not stated)		
420	CC(C)(C)c1ccc2c(c1)C(C(=O)Nc1c(Cl)cccc1Cl)c1ccccc1CO2 (configuration not stated)		
64	Cc1cc2c(cc1C)C(C(=O)Nc1c(C(C)C)cccc1C(C)C)c1ccccc1CO2 (configuration not stated)		Reduction [5]: 27%
78	CC(C)c1cccc(C(C)C)c1NC(=O)C1c2cc(Br)ccc2OCc2ncccc21 (configuration not stated)		Reduction [5]: 47%
27	COC(=O)c1cc(C)cc2c1OCc1ccccc1C2C(=O)Nc1c(C(C)C)cccc1C(C)C (configuration not stated)		Reduction [5]: 84%; Reduction [7]: 28%
50	Cc1ccc2c(c1)C(C(=O)Nc1c(C(C)C)cccc1C(C)C)c1ccccc1CO2 (configuration not stated)	106	Reduction [5]: 70%
250	CCc1cccc(CC)c1NC(=O)C1c2ccccc2COc2ccc(Br)cc21 (configuration not stated)	64	
270	CCc1cccc(CC)c1NC(=O)C1c2ccccc2COc2ccc(C)cc21 (configuration not stated)	49	
580	CC(C)c1cccc(C(C)C)c1NC(=O)C1c2ccccc2COc2ccc(CO)cc21 (configuration not stated)		
180	CC(C)c1cccc(C(C)C)c1NC(=O)C1c2ccccc2COc2cc(Br)ccc21 (configuration not stated)	-2	
160	CC(C)c1cccc(C(C)C)c1NC(=O)C1c2ccccc2COc2ccc(C(F)(F)F)cc21 (configuration not stated)		Reduction [5]: 63%
350	Cc1ccc2c(c1)C(C(=O)Nc1c(C)cccc1C)c1ccccc1CO2 (configuration not stated)	25	
240	CC(C)c1cccc(C(C)C)c1NC(=O)C1c2ccccc2COc2ccc([N+](=O)[O-])cc21 (configuration not stated)		
35	CC(C)c1cccc(C(C)C)c1NC(=O)C1c2ccccc2COc2ccc(I)cc21 (configuration not stated)		Reduction [5]: 73%
500	CCc1cccc(CC)c1NC(=O)C1c2ccccc2COc2ccc(C(C)C)cc21 (configuration not stated)	25	
39	CC(C)c1cccc(C(C)C)c1NC(=O)C1c2ccccc2CCc2ccc(Br)cc21 (configuration not stated)		Reduction [15]: 42%
74	O=C(Nc1c(Cl)cccc1Cl)C1c2ccccc2COc2ccc(Br)cc21 (configuration not stated)		Reduction [5]: 0%

From ChEMBL document CHEMBL1127699, “Inhibitors of acyl-CoA:cholesterol acyltransferase. 1. Synthesis and hypocholesterolemic activity of dibenz[b,e]oxepin-11-carboxanilides” (J Med Chem, 1994)
